Results reported in US20110053804A1, “Gene Signatures for the Prognosis of Cancer” (SLOAN-KETTERING INSTITUTE FOR CANCER RESEARCH, priority 2008, published 2011).

Columns and labels:
Format in all cases: in vivo, mice
LM2 cells [1] = assay: Lung colonization (priming) assay, tail vein injection of TGFβ-pretreated LM2 cells
Description: (§1) FIGS. 3A-D. (A) LM2 cells and a clinically-derived pleural effusion sample (CN34.2A) were pretreated with TGFβ for 6 h. LM2 (2×10^5) and CN34.2A (4×10^5) cells were injected into the lateral tail vein and lung colonization was analyzed by in vivo bioluminescence imaging. (B) Bar graph represents 24 h time point measurements of the normalized photon flux from animals injected with either LM2 or CN34.2A cells. (C) Bone metastasis assays were performed by intracardiac injection of LM2 or BoM-1833 cells (3×10^4). Samples were pretreated with […] of TGFβ for 6 h and compared to an untreated control. […]
(§2) All animal work was done in accordance with a protocol approved by the MSKCC Institutional Animal Care and Use Committee. […] Seven days after mastectomies, lung metastases were monitored and quantified using non-invasive bioluminescence as previously described (Minn et al., 2005).
(§3) For primary tumor analysis, 5×10^5 viable single cells were re-suspended in a 1:1 mixture of PBS and growth-factor-reduced Matrigel (BD Biosciences) and injected orthotopically into both mammary gland number four in a total volume of 100 μL as previously described (Minn et al., 2005). Primary tumor growth rates were analyzed by measuring tumour length (L) and width (W), and calculating tumor volume based on the formula […]. […] Lung metastatic progression was again monitored and quantified using bioluminescence. […]

CN34.2A cells = assay: Lung colonization (priming) assay, tail vein injection of TGFβ-pretreated CN34.2A cells; settings: CN34.2A cells pre-treated with TGFβ 6 h; 24 h time point, normalized photon flux
Description: as §1, §2, §3

LM2 cells [2] = assay: Bone metastasis assay, intracardiac injection of TGFβ-pretreated LM2 cells; settings: LM2 cells pre-treated with TGFβ prior to inoculation into the arterial circulation
Description: (§4) FIGS. 3A-D. (A) LM2 cells and a clinically-derived pleural effusion sample (CN34.2A) were pretreated with TGFβ for 6 h. LM2 (2×10^5) and CN34.2A (4×10^5) cells were injected into the lateral tail vein and lung colonization was analyzed by in vivo bioluminescence imaging. (B) Bar graph represents 24 h time point measurements of the normalized photon flux from animals injected with either LM2 or CN34.2A cells. (C) Bone metastasis assays were performed by intracardiac injection of LM2 or BoM-1833 cells (3×10^4). Samples were pretreated with […] of TGFβ for 6 h and compared to an untreated control. (D) Bar graphs represent seven-day time point analysis of the normalized photon flux from the mouse hind limbs.
(§5) To investigate the selectivity of this lung metastasis-priming effect, we tested the effect of TGFβ pre-incubation on the establishment of bone metastases. […]
as §3

BoM-1833 cells = assay: Bone metastasis assay, intracardiac injection of TGFβ-pretreated BoM-1833 cells; settings: BoM-1833 cells pre-incubated with TGFβ
Description: as §4, §5, §3

Q: How did the “lung colonizing activity (retention of cells in the lungs)” value (LM2 cells [1]; LM2 cells incubated with TGFβ for 6 h prior to tail vein inoculation, 24 h after inoculation, bioluminescence) turn out when “TGFβ: cytokine transforming growth factor beta; TGFβ1 (R&D Systems) used to treat cells for 3 or 6 h” was run?
A: significantly increased

Q: What about the “increase of lung seeding activity” value (LM2 cells [1]; LM2 cells pre-treated with TGFβ 6 h, 24 h time point, normalized photon flux) of the same substance?
A: three

Q: And the “increase of lung seeding activity” value (CN34.2A cells)?
A: five

Q: What about the “ability to form bone metastases” value (LM2 cells [2]) of the same substance?
A: did not increase

Q: What about the “ability to form bone metastases” value (BoM-1833 cells) of the same substance?
A: did not increase

Q: And the “early seeding of the bones” value (BoM-1833 cells; seven-day time point, hind limbs)?
A: no discernible effect
